In patent publication US20240376121A1, “COMPOUNDS AND USES THEREOF” (Foghorn Therapeutics Inc., priority 2021, published 2024):

Key:
[1] = target: T1, HiBit-BRG1 fusion protein (Homo sapiens, UniProt P51532); assay: HiBiT-BRG1 cell-based degradation assay (Nano-Glo HiBiT Lytic Detection); conditions: stable HeLa cell line expressing HiBit-BRG1 and LgBit, 24 h incubation; for Dmax: top dose 30 μM, read-out: BRG1 HiBit Degradation Maximum (%); for DC50: read-out: BRMG1 HiBit Degradation IC50
T1 construct: expressed in transfected cells
Experimental: (§1) Procedure: A stable HeLa cell line expressing HiBiT-BRM was generated. On day 0, 5000 cells were seeded in 40 μL of media into each well of 384-well cell culture plates. On day 1, cells were treated with 120 nL DMSO or 120 nL of 3-fold serially DMSO-diluted compounds (10 points in duplicate with 30 μM as final top dose). Subsequently plates were incubated for 24 h in a standard tissue culture incubator and equilibrated at room temperature for 15 minutes. Nano-Glo HiBiT Lytic Detection System (Promega N3050) reagent was freshly prepared and 20 ul was added to each well. Upon addition of this LgBit-containing reagent, the HiBiT and LgBiT proteins associate to form the luminescent NanoBiT luciferase. The plates were shaken for 10 minutes at room temperature and the bioluminescence read using an EnVision plate reader (PerkinElmer).
For measurement of BRG1 degradation, a stable HeLa cell line expressing HiBit-BRG1 and LgBit was generated. The same protocol as above was then followed.
(§2) The degradation % was calculated using the following formula: % degradation=100%−100%×(LumSample−LumLC)/(LumHC−LumLC). DMSO treated cells are employed as High Control (HC) and 2 μM of a known BRM/BRG1 degrader standard treated cells are employed as Low Control (LC).

HiBit-BRM fusion protein = target: T2, HiBit-BRM fusion protein (Homo sapiens, UniProt P51531); assay: HiBiT-BRM cell-based degradation assay (Nano-Glo HiBiT Lytic Detection); conditions: stable HeLa cell line expressing HiBiT-BRM, 24 h incubation; for BRM HiBit Degradation Maximum (%): top dose 30 μM; for DC50: read-out: BRM HiBit Degradation IC50
T2 construct: expressed in transfected cells
Experimental: as §1, §2

T2 sequence (P51531 whole entry, the tested form may be a part): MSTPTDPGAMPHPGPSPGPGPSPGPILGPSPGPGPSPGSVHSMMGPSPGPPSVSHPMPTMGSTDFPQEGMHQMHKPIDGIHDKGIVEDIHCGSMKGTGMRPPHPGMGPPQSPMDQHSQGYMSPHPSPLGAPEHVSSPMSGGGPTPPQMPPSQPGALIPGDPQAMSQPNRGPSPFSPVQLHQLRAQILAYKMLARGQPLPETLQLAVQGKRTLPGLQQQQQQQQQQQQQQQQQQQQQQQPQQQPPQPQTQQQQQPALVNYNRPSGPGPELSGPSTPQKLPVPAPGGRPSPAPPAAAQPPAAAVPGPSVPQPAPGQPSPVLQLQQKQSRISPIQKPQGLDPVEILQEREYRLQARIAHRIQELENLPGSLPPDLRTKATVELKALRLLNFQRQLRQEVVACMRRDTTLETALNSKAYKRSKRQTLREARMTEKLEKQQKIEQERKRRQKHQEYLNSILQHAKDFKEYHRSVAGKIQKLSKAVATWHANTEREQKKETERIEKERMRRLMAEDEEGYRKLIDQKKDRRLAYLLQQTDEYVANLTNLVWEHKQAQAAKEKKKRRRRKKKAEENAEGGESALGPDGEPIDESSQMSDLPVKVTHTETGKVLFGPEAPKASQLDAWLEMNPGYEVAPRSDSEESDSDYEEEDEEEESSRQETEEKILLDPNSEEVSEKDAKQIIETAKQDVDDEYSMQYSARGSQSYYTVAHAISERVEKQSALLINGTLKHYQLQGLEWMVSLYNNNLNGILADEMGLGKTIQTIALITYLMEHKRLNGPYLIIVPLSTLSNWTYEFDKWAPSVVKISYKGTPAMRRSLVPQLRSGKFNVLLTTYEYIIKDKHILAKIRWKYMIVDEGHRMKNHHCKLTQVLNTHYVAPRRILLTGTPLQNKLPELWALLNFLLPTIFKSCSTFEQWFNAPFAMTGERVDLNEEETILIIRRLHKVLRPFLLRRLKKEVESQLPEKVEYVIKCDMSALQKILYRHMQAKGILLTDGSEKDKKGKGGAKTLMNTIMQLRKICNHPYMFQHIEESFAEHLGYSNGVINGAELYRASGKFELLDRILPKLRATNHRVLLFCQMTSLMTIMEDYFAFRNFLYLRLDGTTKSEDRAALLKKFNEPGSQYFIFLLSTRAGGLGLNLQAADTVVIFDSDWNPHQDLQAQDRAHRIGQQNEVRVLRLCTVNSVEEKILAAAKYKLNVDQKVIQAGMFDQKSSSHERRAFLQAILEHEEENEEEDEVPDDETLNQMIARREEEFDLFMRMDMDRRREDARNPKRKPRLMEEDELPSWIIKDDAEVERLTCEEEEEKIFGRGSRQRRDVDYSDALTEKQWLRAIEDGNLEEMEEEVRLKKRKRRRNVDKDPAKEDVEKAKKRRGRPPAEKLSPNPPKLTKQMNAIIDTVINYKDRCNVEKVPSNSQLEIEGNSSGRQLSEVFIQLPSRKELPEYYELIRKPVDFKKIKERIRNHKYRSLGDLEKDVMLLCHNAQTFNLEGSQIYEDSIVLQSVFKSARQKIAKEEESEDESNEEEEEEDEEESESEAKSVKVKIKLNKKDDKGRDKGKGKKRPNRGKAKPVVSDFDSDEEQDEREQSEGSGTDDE
T1 sequence (P51532 whole entry, the tested form may be a part): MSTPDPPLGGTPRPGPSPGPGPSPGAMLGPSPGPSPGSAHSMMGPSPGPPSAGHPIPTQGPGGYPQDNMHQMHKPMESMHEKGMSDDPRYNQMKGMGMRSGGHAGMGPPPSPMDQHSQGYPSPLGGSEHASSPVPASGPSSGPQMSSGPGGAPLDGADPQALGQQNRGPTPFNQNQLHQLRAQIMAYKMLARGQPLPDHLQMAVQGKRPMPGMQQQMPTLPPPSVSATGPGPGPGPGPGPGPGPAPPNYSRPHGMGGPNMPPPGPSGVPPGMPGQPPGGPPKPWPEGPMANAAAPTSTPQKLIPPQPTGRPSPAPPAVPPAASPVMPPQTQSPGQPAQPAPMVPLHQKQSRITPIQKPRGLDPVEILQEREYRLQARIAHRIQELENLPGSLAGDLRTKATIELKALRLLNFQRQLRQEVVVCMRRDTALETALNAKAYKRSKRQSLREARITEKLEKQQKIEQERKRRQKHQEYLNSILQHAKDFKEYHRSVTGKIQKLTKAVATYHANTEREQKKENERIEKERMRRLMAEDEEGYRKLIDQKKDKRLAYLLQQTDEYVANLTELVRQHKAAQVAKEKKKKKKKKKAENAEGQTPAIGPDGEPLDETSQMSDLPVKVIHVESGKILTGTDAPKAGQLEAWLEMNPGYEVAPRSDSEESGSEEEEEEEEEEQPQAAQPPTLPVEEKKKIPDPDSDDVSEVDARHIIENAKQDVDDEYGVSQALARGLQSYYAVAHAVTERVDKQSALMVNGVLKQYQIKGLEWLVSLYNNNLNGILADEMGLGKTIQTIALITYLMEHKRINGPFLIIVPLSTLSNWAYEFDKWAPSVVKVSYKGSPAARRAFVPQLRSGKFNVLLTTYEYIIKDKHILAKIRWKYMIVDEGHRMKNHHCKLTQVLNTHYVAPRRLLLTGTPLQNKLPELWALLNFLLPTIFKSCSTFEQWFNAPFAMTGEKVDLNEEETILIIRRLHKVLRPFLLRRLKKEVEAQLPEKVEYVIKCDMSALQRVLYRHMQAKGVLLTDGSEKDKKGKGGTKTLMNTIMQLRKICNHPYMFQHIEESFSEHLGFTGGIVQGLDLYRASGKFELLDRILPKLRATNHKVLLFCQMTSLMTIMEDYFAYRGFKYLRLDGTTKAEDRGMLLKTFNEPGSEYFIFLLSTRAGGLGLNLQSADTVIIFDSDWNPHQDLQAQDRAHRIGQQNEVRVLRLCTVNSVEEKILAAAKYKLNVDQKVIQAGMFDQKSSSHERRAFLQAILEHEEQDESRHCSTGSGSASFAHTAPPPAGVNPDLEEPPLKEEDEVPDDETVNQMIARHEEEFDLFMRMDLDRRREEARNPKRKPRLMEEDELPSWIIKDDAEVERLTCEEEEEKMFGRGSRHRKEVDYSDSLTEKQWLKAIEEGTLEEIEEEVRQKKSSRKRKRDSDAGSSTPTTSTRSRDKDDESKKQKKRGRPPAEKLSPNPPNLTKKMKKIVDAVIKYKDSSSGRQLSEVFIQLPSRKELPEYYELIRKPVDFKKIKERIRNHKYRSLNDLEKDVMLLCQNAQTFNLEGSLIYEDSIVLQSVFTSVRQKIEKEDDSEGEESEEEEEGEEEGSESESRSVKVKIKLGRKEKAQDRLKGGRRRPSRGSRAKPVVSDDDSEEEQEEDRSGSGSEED

| Structure (SMILES) | Dmax [1] | DC50 [1] | BRM HiBit Degradation Maximum (%) (HiBit-BRM fusion protein) | DC50 (HiBit-BRM fusion protein) |
| --- | --- | --- | --- | --- |
| Cc1ncsc1-c1ccc([C@H](C)NC(=O)[C@@H]2C[C@@H](O)CN2C(=O)[C@@H](c2cc(O[C@@H]3CC[C@@H]3N3CCC(c4sc5nnc(-c6ccccc6O)cc5c4C)CC3)no2)C(C)C)cc1 [Compound 35, (2S,4R)-4-hydroxy-1-[(2R)-2-{3-[(1R,2S)-2-{4-[3-(2-hydroxyphenyl)-5-methylthieno[2,3-c]pyridazin-6-yl]piperidin-1-yl}cyclobutoxy]-1,2-oxazol-5-yl}-3-methylbutanoyl]-N-[(1S)-1-[4-(4-methyl-1,3-thiazol-5-yl)phenyl]ethyl]pyrrolidine-2-carboxamide] | < 50% | ≥ 1000 nM | A (“A” indicates maximum degradation ≥ 75%) | ≥ 10 nM |
| Cc1ncsc1-c1ccc([C@H](C)NC(=O)[C@@H]2C[C@@H](O)CN2C(=O)[C@@H](c2cc(O[C@H]3CC[C@@H]3N3CCC(c4sc5nnc(-c6ccccc6O)cc5c4C)CC3)no2)C(C)C)cc1 [Compound 36, (2S,4R)-4-hydroxy-1-[(2R)-2-{3-[(1S,2S)-2-{4-[3-(2-hydroxyphenyl)-5-methylthieno[2,3-c]pyridazin-6-yl]piperidin-1-yl}cyclobutoxy]-1,2-oxazol-5-yl}-3-methylbutanoyl]-N-[(1S)-1-[4-(4-methyl-1,3-thiazol-5-yl)phenyl]ethyl]pyrrolidine-2-carboxamide] | < 50% | ≥ 1000 nM | B (“B” indicates maximum degradation ≥ 50%) | ≥ 10 nM |
| Cc1ncsc1-c1ccc([C@H](C)NC(=O)[C@@H]2C[C@@H](O)CN2C(=O)[C@@H](c2cc([C@H]3CC[C@@H](N4CCC(c5sc6nnc(-c7ccccc7O)cc6c5C)CC4)CC3)no2)C(C)C)cc1 [Compound 37, (2S,4R)-4-hydroxy-1-((R)-2-(3-((1s,4S)-4-(4-(3-(2-hydroxyphenyl)-5-methylthieno[2,3-c]pyridazin-6-yl)piperidin-1-yl)cyclohexyl)isoxazol-5-yl)-3-methylbutanoyl)-N-((S)-1-(4-(4-methylthiazol-5-yl)phenyl)ethyl)pyrrolidine-2-carboxamide] | < 50% | ≥ 1000 nM | A (“A” indicates maximum degradation ≥ 75%) | < 10 nM |
| Cc1ncsc1-c1ccc([C@H](C)NC(=O)[C@@H]2C[C@@H](O)CN2C(=O)[C@@H](c2cc([C@H]3CC[C@H](N4CCC(c5sc6nnc(-c7ccccc7O)cc6c5C)CC4)CC3)no2)C(C)C)cc1 [Compound 38, (2S,4R)-4-hydroxy-1-((R)-2-(3-((1r,4R)-4-(4-(3-(2-hydroxyphenyl)-5-methylthieno[2,3-c]pyridazin-6-yl)piperidin-1-yl)cyclohexyl)isoxazol-5-yl)-3-methylbutanoyl)-N-((S)-1-(4-(4-methylthiazol-5-yl)phenyl)ethyl)pyrrolidine-2-carboxamide] | < 50% | ≥ 1000 nM | A (“A” indicates maximum degradation ≥ 75%) | ≥ 100 nM |
| Cc1ncsc1-c1ccc([C@H](C)NC(=O)[C@@H]2C[C@@H](O)CN2C(=O)[C@@H](c2cc(OCCN[C@H]3CCc4sc5nnc(-c6ccccc6O)cc5c4C3)no2)C(C)C)cc1 [Compound 39, (2S,4R)-4-hydroxy-1-((R)-2-(3-(2-(((S)-3-(2-hydroxyphenyl)-5,6,7,8-tetrahydrobenzo[4,5]thieno[2,3-c]pyridazin-6-yl)amino)ethoxy)isoxazol-5-yl)-3-methylbutanoyl)-N—((S)-1-(4-(4-methylthiazol-5-yl)phenyl)ethyl)pyrrolidine-2-carboxamide] | < 50% | ≥ 1000 nM | C (“C” indicates maximum degradation < 50%) | ≥ 1000 nM |
| Cc1ncsc1-c1ccc([C@H](C)NC(=O)[C@@H]2C[C@@H](O)CN2C(=O)[C@@H](c2cc(OCCN[C@@H]3CCc4sc5nnc(-c6ccccc6O)cc5c4C3)no2)C(C)C)cc1 [Compound 40, (2S,4R)-4-hydroxy-1-((R)-2-(3-(2-(((R)-3-(2-hydroxyphenyl)-5,6,7,8-tetrahydrobenzo[4,5]thieno[2,3-c]pyridazin-6-yl)amino)ethoxy)isoxazol-5-yl)-3-methylbutanoyl)-N—((S)-1-(4-(4-methylthiazol-5-yl)phenyl)ethyl)pyrrolidine-2-carboxamide] | < 50% | ≥ 1000 nM | C (“C” indicates maximum degradation < 50%) | ≥ 1000 nM |
| Cc1ncsc1-c1ccc([C@H](C)NC(=O)[C@@H]2C[C@@H](O)CN2C(=O)[C@@H](c2cc(N3C[C@H]4C[C@@H]3CN4C(=O)[C@H]3CCc4sc5nnc(-c6ccccc6O)cc5c4C3)no2)C(C)C)cc1 [Compound 41, (2S,4R)-4-hydroxy-1-((R)-2-(3-((1R,4R)-5-((S)-3-(2-hydroxyphenyl)-5,6,7,8-tetrahydrobenzo[4,5]thieno[2,3-c]pyridazine-6-carbonyl)-2,5-diazabicyclo[2.2.1]heptan-2-yl)isoxazol-5-yl)-3-methylbutanoyl)-N—((S)-1-(4-(4-methylthiazol-5-yl)phenyl)ethyl)pyrrolidine-2-carboxamide] | ≥ 50% | ≥ 100 nM | A (“A” indicates maximum degradation ≥ 75%) | ≥ 10 nM |
| Cc1ncsc1-c1ccc([C@H](C)NC(=O)[C@@H]2C[C@@H](O)CN2C(=O)[C@@H](c2cc(N3C[C@H]4C[C@@H]3CN4C(=O)[C@@H]3CCc4sc5nnc(-c6ccccc6O)cc5c4C3)no2)C(C)C)cc1 [Compound 42, (2S,4R)-4-hydroxy-1-((R)-2-(3-((1R,4R)-5-((R)-3-(2-hydroxyphenyl)-5,6,7,8-tetrahydrobenzo[4,5]thieno[2,3-c]pyridazine-6-carbonyl)-2,5-diazabicyclo[2.2.1]heptan-2-yl)isoxazol-5-yl)-3-methylbutanoyl)-N—((S)-1-(4-(4-methylthiazol-5-yl)phenyl)ethyl)pyrrolidine-2-carboxamide] | < 50% | ≥ 1000 nM | A (“A” indicates maximum degradation ≥ 75%) | ≥ 100 nM |
| Cc1ncsc1-c1ccc([C@H](C)NC(=O)[C@@H]2C[C@@H](O)CN2C(=O)[C@@H](c2cc(N3C[C@@H]4C[C@H]3CN4C(=O)[C@H]3CCc4sc5nnc(-c6ccccc6O)cc5c4C3)no2)C(C)C)cc1 [Compound 43, (2S,4R)-4-hydroxy-1-((R)-2-(3-((1S,4S)-5-((S)-3-(2-hydroxyphenyl)-5,6,7,8-tetrahydrobenzo[4,5]thieno[2,3-c]pyridazine-6-carbonyl)-2,5-diazabicyclo[2.2.1]heptan-2-yl)isoxazol-5-yl)-3-methylbutanoyl)-N-((S)-1-(4-(4-methylthiazol-5-yl)phenyl)ethyl)pyrrolidine-2-carboxamide] | < 50% | ≥ 1000 nM | C (“C” indicates maximum degradation < 50%) | ≥ 1000 nM |
